Source: patent US10548935B2, “Composition and method for preventing, reducing, alleviating or treating idiopathic vomiting” (Mars, Incorporated, priority 2013, dated 2020)
Counter-ions that a name gives are not always drawn.

Legend:
h5HT3A receptor = target: T1, h5HT3A receptor (Homo sapiens, UniProt P46098); assay: Assays for screening 5-HT3a receptor inhibitors (FLIPR calcium assay or aequorin-assisted serotonin receptor assay; dosage response curves); format: cell-based
T1 construct: expressed in transfected cells
T1 sequence (P46098 24-478): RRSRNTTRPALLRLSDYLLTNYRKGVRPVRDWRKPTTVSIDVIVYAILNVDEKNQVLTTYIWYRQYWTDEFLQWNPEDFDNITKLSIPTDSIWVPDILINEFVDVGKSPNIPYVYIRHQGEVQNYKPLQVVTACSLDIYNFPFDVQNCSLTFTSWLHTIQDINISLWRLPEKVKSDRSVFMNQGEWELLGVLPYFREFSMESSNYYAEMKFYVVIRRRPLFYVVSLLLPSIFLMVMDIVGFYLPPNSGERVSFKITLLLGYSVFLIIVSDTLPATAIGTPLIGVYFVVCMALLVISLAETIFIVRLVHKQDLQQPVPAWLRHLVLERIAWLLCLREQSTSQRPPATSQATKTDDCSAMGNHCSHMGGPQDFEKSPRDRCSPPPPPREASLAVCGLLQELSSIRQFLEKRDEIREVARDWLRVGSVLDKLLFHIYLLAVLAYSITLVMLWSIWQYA
Description: Various known high through-put screening assays can be used to determine the inhibitory effects of a material on the 5-HT3a receptors.
Due to activation of 5HT3 receptor following calcium and sodium influx and the subsequent rapid intracellular calcium and sodium increase, a calcium indicator (e.g., Fluo-4 AM) or a sodium dye can therefore be readily used to detect influx Ca^+2 or Na^+ signal using the Flourometric Imaging Plate Reader (FLIPR) assay to identify agonists or antagonists of 5-HT3a receptors.
The 5-HT3a FLIPR assay can specifically be conducted by the following steps. First, […] (human embryonic kidney) cells stably expressed with h5HT3A receptor are grown in 16-18 ml growth medium in a 75 cm^2 flask for 2-3 days at 37° C. in a mammalian cell culture incubator with 5% CO2 and 90% humidity. The growth medium may contain, for example, DMEM/F12 (1:1, Invitrogen 11039) supplemented with 10% FBS (fetal bovine serum), 100 μg/ml Antibiotic/Antimycotic, and 150 ug/ml G418. The cell medium is then transferred to a 50 ml tube, and the cells are washed with 10 ml PBS. Subsequently, 2 ml of 0.05% Trypsin-EDTA is added to detach cells, and the above cell medium is added back to flask to inactivate trypsin. Next, the cells are transferred back to the above 50 ml tube, which is centrifuged at 850 rpm for 3 minutes to remove medium. The cells obtained from centrifugation are then re-suspended with growth medium at 1-1.5 ml per flask cells. One vial of Fluo-4 AM (calcium indicator, 50 ug) is subsequently dissolved with 20 ul of Pluronic F-127, and 10 ul of Fluo-4 AM solution per flask cells is added (1 vial of Fluo-4 AM solution, 20 ul, is good for 2 flask of cells). The cells are then stained with Fluo-4 AM for 30 min at room temperature with gently shaking on a shaker, followed by addition of 45 ml of the assay buffer [HBSS with CaCl2 and MgCl2 (Invitrogen 14025), 20 mM HEPES, pH7.2] to wash cells once. Centrifugation is carried out once more at 850 rpm for 3 minutes to remove assay buffer. The resulting cell pellet is again re-suspended in Assay buffer (per flask cells with 18-20 ml assay buffer). Ninety microliters of cells (50K cells/well) is loaded in the 96-well plates that are pre-loaded with the compounds to be tested (10 ul of 1 mM test materials, the final concentration of the test materials will be 100 uM). The plates are placed at room temperature for 15-30 min in dark and then transferred to FLIPR-384 instrument (Molecular Devices). […] The calcium signal of the test plates is finally recorded by the FLIPR program. The average and standard deviations are calculated using Excel, and the background (buffer) is subtracted. The percentage (%) inhibition is then calculated as
[formula] A test material will be considered as having an inhibitory effect against the 5-HT3a receptor if the percentage inhibition calculated is greater than 40%.
Aequorin is a photo-protein originating from the Jellyfish Aequorea Victoria. It is initially translated as an apo-enzyme requiring the hydrophobic group coelenterazine to initiate the conversion to aequorin. Upon binding of calcium, the coelenterazine is oxidized by aequorin into coelenteramide (BFP) resulting in the emission of blue light and CO2. Therefore, it is particularly useful for visualizing or detecting influx Ca^+2 signal.
After 18-24 h of culture, the cells are detached gently by flushing with their cell culture medium. Washing with an additional 10 mLs of cell culture media will ensure that optimum number of cells is captured. The cells are then centrifuged at 150×g, counted and re-suspended at 1×10^6 cells/mL in BSA medium [DMEM/Ham's F12 (with 15 mM HEPES, L-glutamine, without phenol red) culture medium (Invitrogen, Cat. No. 11039-021)+10% protease-free BSA (Sigma Aldrich, Cat. No. A9205) in H2O with a final BSA concentration of 0.1%] in a Falcon tube. Coelenterazine is added at a final concentration of 5 μM in assay medium.

NK-1 receptor = target: T2, NK-1 receptor (Homo sapiens, UniProt P25103); assay: Tango GPCR cell-based assay, TACR1-bla U2OS cells, NK-1 receptor inhibitors; settings: 1 nM SAR9 Substance P agonist
T2 construct: host or cells: U2OS (Tango TACR1-bla)
T2 sequence (P25103 whole entry): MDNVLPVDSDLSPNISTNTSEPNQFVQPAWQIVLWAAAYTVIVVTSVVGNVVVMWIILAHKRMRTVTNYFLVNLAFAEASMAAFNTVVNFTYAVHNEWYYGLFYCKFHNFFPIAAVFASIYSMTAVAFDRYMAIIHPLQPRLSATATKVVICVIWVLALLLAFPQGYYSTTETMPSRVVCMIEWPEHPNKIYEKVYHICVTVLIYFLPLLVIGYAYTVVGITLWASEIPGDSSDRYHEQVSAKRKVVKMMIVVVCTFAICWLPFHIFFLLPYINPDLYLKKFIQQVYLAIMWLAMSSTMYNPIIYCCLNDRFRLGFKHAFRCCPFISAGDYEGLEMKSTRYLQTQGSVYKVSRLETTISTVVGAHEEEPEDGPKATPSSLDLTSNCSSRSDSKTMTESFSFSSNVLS
Description: Various known high through-put screening assays can also be used to determine the inhibitory effects of a material on the NK-1 receptors.
One exemplary assay is the Tango™ G-Protein Coupled Receptors (GPCR) cell-based assays by Invitrogen. First, TACR1-bla U2OS cells (from Invitrogen) are cultured in McCoy's medium. The cultured cells are then plated in DMEM into 96-well plates (15,125 cells/well in 90 uL/well). After 16-24 hours, the cells are treated with test materials or positive control antagonist (which is 100 nM Aprepitant) and then incubated for 30-60 minutes at 37° C. in 5% CO2. Subsequently, the cells are treated with 1 nM SAR9 Substance P agonist and incubated again for 5 hours at 37° C. in 5% CO2. The plates are removed from the incubator and equilibrated at room temperature for 15 minutes. During the equilibration step, the LiveBlazer substrate detection solution (from Invitrogen) is prepared. Six times of substrate mixture is added to each well, followed by incubating the plates in the dark at room temp for 2 hours. The plates are read by the Envision microplate reader in 2 channels using the “Geneblazer 451” protocol, which include a blue channel (Excitement at 405 and Emission at 460) and a green channel (Excitement at 405 and Emission at 535).
FIGS. 45-70 show the NK-1 dosage response curves of compounds described hereinabove with high NK-1 inhibitory effect.

| SMILES | 5-HT3a receptor inhibitory effect (h5HT3A receptor) | NK-1 receptor inhibitory effect (NK-1 receptor) | cell toxicity (Cell toxicity) |
| --- | --- | --- | --- |
| O=C(/C=C/c1ccc(O)cc1)c1ccccc1 [4-Hydroxychalcone] | surprisingly high | surprisingly high | little or no |
| O=c1c(O)c(-c2ccccc2)oc2ccc(O)cc12 [3,6-Dihydroxyflavone] | surprisingly high | surprisingly high | little or no |
| CC(=O)C=Cc1ccccc1 [Benzylidenacetone] |  | surprisingly high |  |
| CC1(C)[C@@H](O)CC[C@]2(C)[C@H]3C(=O)C=C4[C@@H]5C[C@@](C)(C(=O)O)CC[C@]5(C)CC[C@@]4(C)[C@]3(C)CC[C@@H]12 [18-Beta-glycyrrhetic acid] | surprisingly high | surprisingly high | little or no |
| CCCCCCCCCCCCCCCC(=O)OC(CC(=O)O)C[N+](C)(C)C.[Cl-] (racemic) [DL-palmitoylcarnitine chloride] | surprisingly high | surprisingly high | little or no |
| COC1=C(OC)C(=O)C(C)=CC1=O [Ubiquinone-O] | surprisingly high | surprisingly high | little or no |
| COc1cc(/C=C/C(=O)CC(=O)/C=C/c2ccc(O)c(OC)c2)ccc1O [Curcumin] | surprisingly high | surprisingly high |  |
| C[C@H]1[C@H](C)CC[C@]2(C(=O)O)CC[C@]3(C)C(=CC[C@@H]4[C@@]5(C)C[C@@H](O)[C@H](O)[C@@](C)(CO)[C@@H]5CC[C@]43C)[C@H]12 [Asiatic acid] | surprisingly high | surprisingly high | little or no |
| O=c1cc(-c2ccc(O)cc2)oc2cc(O)cc(O)c12 [Apigenin] |  | surprisingly high | little or no |
| O=C(/C=C/c1ccccc1)c1ccccc1 [Chalcone] |  | surprisingly high | little or no |
| O=C(/C=C/c1ccccc1O)c1ccc(O)cc1O [2,2′,4′-trihydroxy-chalcone] |  | surprisingly high | little or no |
| COc1ccc(-c2coc3cc(O)cc(O)c3c2=O)cc1 [Biochanin A] | surprisingly high |  | little or no |
| O=C(CCc1ccc(O)cc1)c1c(O)cc(O)cc1O [Phloretin] | surprisingly high |  | little or no |
| CC(=O)/C=C/C1C(C)=CCCC1(C)C (stereo not drawn) [Alpha-lonone] | surprisingly high |  | little or no |
| c1ccc2c(Cc3c[nH]c4ccccc34)c[nH]c2c1 [3,3′-diindolylmethane] |  | surprisingly high | little or no |

More lines, main results first:

| 5-HT3a receptor inhibitory effect (h5HT3A receptor) | NK-1 receptor inhibitory effect (NK-1 receptor) | SMILES | cell toxicity (Cell toxicity) |
| --- | --- | --- | --- |
|  | surprisingly high | COc1ccc(/C=C/C=O)cc1 [Trans-4-methoxycinnamaldehyde] | little or no |
|  | surprisingly high | CC/C=C/C=C/C=O [Trans,trans-2,4-heptadienal] | little or no |
|  | surprisingly high | O=c1c(-c2ccc(O)cc2)coc2cc(O)cc(O)c12 [Genistein] | little or no |
|  | surprisingly high | CCCCCCCCCCCCCC[C@@H](O)[C@@H](O)[C@@H](N)CO [Phytosphingosine] | little or no |
| surprisingly high | surprisingly high | Oc1ccc(C=Cc2cc(O)cc(O)c2)cc1 [Resveratrol] |  |
| surprisingly high | surprisingly high | O=c1cc(-c2ccc(O)c(O)c2)oc2cc(O)cc(O)c12 [Luteolin] | little or no |
|  | surprisingly high | CCCC/C=C/C=C/C=O [Trans,trans-2,4-nonadienal] | little or no |
|  | surprisingly high | CC1=CC(=O)c2ccccc2C1=O [Menadione] | little or no |
| surprisingly high |  | CCCCOC(=O)CC(O)(CC(=O)OCCCC)C(=O)OCCCC [Tributyl citrate] | little or no |
|  | surprisingly high | CC/C=C\CC/C=C/CO [Trans-2,cis-6-nonadienol] | little or no |
| surprisingly high |  | CCCCCCCCCCC/C=C\CCCCC(=O)O [Petroselinic acid] | little or no |
